Experimental data taken from patent US12661503B2, “Microcurrent-based skin treatment and pretreatment techniques” (NSE Products, Inc., priority 2022, dated 2026).
“Also recorded” adds a separate entry of the source. Like-named read-outs stand apart in the source and are kept apart here.

Key:
[1] = Franz cell transdermal penetration (receptor fluid) after electrical waveform pretreatment; assay type: in vitro ADME, human or mammalian; conditions: for transdermal penetration of allantoin, six minute vs three minute pretreatment: CSW at 375, 250 and 125 μA (all current levels)
From the text: (§1) FIG. 7A is a schematic diagram of a Franz cell (or cell system) 700 adapted for testing permeability of a skin sample 710.
An electrical voltage can be applied to or across the sample 720 via an electrode 740 in contact with the skin sample 730, and a conducting lead 750 disposed in a sampling port 760. Suitable materials for electrode 740 and lead 750 include platinum, silver, copper, and other conducting metals, in porous mesh, wafer, plate, or wire form. A heater 770 can be provided to maintain temperature of the Franz cell 710, sample 720 and donor compound 730, during operation of the system 700.
FIG. 7B is a schematic diagram of a Franz cell system 700 adapted for application of a microcurrent treatment to the skin sample 710. In this example, a galvanic unit or waveform generator 780 can be provided to apply a microcurrent waveform to the skin sample 720; e.g., via a negative polarity platinum wire 755 connected to a porous mesh or wafer electrode 740 on the skin surface, with opposite polarity (+) defined by a platinum lead wire or wire electrode 755. Different metals such as copper or silver can also be used, or other suitable conductors. The polarity can also be reversed, or the lead wire 750 can be used to define a ground potential for the Franz cell 710.
Round one testing was performed for three electrical waveforms with allantoin in PBS (phosphate buffered saline) or the NBS agent. The goal was to compare the three electrical waveforms for their capacity to deliver the one or more components in the NBS v1.18 agent. The delivery was tracked via allantoin measurement, used as a skin penetration tracking marker.
(§2) The study was conducted in two phases or parts. Round 1a (Round 1: Phase 1a) evaluated the penetration of 1.0% allantoin (an active) in PBS with a galvanic electrical waveform (GEWF), charge-balanced, symmetric electrical waveform (CSW), and a Program Random Pulse Width Modulation electrical waveform ([…]), in a Franz cell model. Details of the testing process includes receptor well collection and processing (Table 2A), and the epidermal and dermal retention protocol to assess penetration of the tracking markers (Table 2B).
Samples and treatments included 1.0% allantoin in PBS, with no electrical stimulation. The skin sample was also pretreated with a GEWF (Galvanic Electrical waveform) in PBS for thirty-six minutes (36 m), followed by treatment with a PBS topical or agent containing 1.0% allantoin. Pretreatment was also applied with a charge-balanced, symmetric electrical waveform (CSW) in PBS for 36 m, followed by treatment with a PBS agent containing 1.0% allantoin, or treatment with a Program Random Pulse Width Modulation electrical waveform ([…]) in PBS for 36 m followed by application of a PBS agent with 1.0% allantoin.
(§3) The microcurrent dosage delivered ranged up to 375 microampere (μA) for a twelve minute cycle, repeated for three cycles. Receptor fluid collection was measured at time t=0 (before and immediately after the topical sample treatment), at the end of waveform cycle 1 (t=12 min), at the end of waveform cycle 3 (t=36 m); and at 1 hour (1 h), 6 h and 24 h intervals post-pretreatment with the electrical waveform and treatment with the selected topical agents.
Round 1b (Round 1: Phase 1b) testing included evaluation of the NBS v1.18 agent with the GEWF (galvanic electrical waveform), CSW (charge-balanced, symmetric electrical waveform) and […] (Program Random Pulse Width Modulation electrical waveform), in a Franz cell model as described herein. Samples and treatments included the NBS v1.18 agent containing 0.1% allantoin, with no electrical stimulation. […]

[2] = Franz cell epidermal and dermal retention of tracking marker; assay type: in vitro ADME, human or mammalian
Protocol: as §1, §2
as §3, with “Receptor” for “The microcurrent dosage delivered ranged up to 375 microampere (μA) for a twelve minute cycle, repeated for three cycles. Receptor”
Receptor fluid collection was performed at time t=0 (before and immediately after topical sample treatment), at the end of waveform cycle one (12 m), at the end of waveform cycle three (36 m), and at 1 h, 6 h and 24 h intervals post pre-treatment with the electrical waveform, and treatment with the topical agent.
(§4) The number of Franz cell replicates (Franz cells) per sample was n=3 for non-electrical pretreated samples, and n=6 for pulsed electrical pretreatment samples. The number of Franz cell replicates may also vary. The current flow (I) is given in microamperes (μA), and the pulse time (PT) in minutes (mi) where zeros indicate no electrical current, and no pulse time. In each case, the next include the sample being drawn off (draw off), and post pulse treatment/dosing with phosphate buffered saline (PBS) containing 1.0% allantoin. Assessment times were at post 0.5, 1.0, 6 and 24 hours (hr), assaying for allantoin.

[3] = Franz cell tracking marker flux after electrical waveform pretreatment; assay type: in vitro ADME, human or mammalian
From the text: as §1
FIG. 11A is a bar chart illustrating transdermal allantoin penetration, following selected current treatments. FIG. 11B is a bar chart illustrating allantoin retention in the epidermis and dermis, following the selected treatments. FIG. 11C is a bar chart illustrating allantoin flux, following the selected treatments. The Flus is in arbitrary units, for example μg/cm^2/hr, or other suitable, appropriate or convenient measure, as known in the art.
as §4

[4] = system: upper thigh skin of subjects; assay: Tape stripping assessment for allantoin recovery (LC-MS); assay type: in vivo; conditions: early tape strips one to five; treated vs untreated upper thigh; week twelve
Protocol: Cellulite was further evaluated by measuring circumference of upper thigh during each visit. At the end of study completion at twelve weeks, twenty tape strips were removed from the treated upper thigh area of five subjects chosen […] and five control strips were obtained from an untreated site on the upper thigh.
In addition, the circumference of each subject's upper thigh was measured during each visit as an indicator for improvement in slimming and firmness (see M. H. Gold, K. A. Khatri, K. Hails, R. A. Weiss and N. Fournier, “Reduction in thigh circumference and improvement in appearance of cellulite,” J. of Cosmetic and Laser Therapy 13, February 2011, which is incorporated by reference herein, in the entirety and for all purposes). At the end of study, the twenty tape strips were collected from the treated upper thigh area, and from an untreated upper thigh area from five randomly chosen subjects. Five tape strips from both treated and untreated areas of upper thigh were evaluated for accumulation of allantoin using LC-MS spectroscopy.
FIGS. 20A and 20B are scatter plots illustrating a tape stripping assessment for allantoin recovery in the upper thigh. The results include representative, anonymous, arbitrarily-labeled samples (S2 and S4), as compared to corresponding controls. […]

[5] = Franz cell epidermal and dermal retention of tracking marker; assay type: in vitro ADME, human or mammalian; remark: listed apart in the source
[6] = Round Three, FIG. 15B, 1.0% allantoin in PBS

For `NC(=O)NC1NC(=O)NC1=O` (stereo not shown) [allantoin], the “delivery of allantoin after electrical pre-treatment using conductive gel vs non-electrical pretreatment” value ([1]; FIG. 11A, test #9 and #11 vs #10, conductive gel containing 1.0% allantoin, Ept-36 min) was 5, the “increase in transdermal penetration of allantoin” value ([1]; Round 1a, FIG. 9A, 1.0% allantoin in PBS after 36 min pretreatment with galvanic, CSW or PRPWM waveform, up to 375 μA) was “fivefold increase” and the “increase in penetration after electrical pre-treatment using PBS vs non-electrical pretreatment, caffeine as tracking marker” value ([1]; Round 2b, FIG. 13A, test #1 vs #2, Ept-36 min) was “greater than fivefold increase”. The “transdermal penetration of allantoin, six minute vs three minute pretreatment” value ([1]; Round Four, FIG. 16A, NBS agent with 0.1% allantoin left on) was “increased transdermal penetration”, the “transdermal penetration of allantoin, six minute vs three minute pretreatment” value ([1]; Round Three, FIG. 15A, 1.0% allantoin in PBS) was “increased transdermal penetration” and the “allantoin retention in epidermis and dermis, GEWF vs CSW and PRPWMEWF” value ([2]; Round 1a, FIG. 9B, 1.0% allantoin in PBS, 24 h) was “slightly more retention”. The “epidermal retention at pretreatment current of about 375 μA” value [2, 6] was “increased epidermal retention”, the “retention in the dermis at lower microcurrent levels (250 μA, 125 μA)” value [2, 6] was “higher retention in the dermis” and the “skin retention, six minute vs three minute pretreatment” value ([2]; Round Three, FIG. 15B, all microcurrent levels) was “higher skin retention”. For the same compound, the “increase in penetration of allantoin upon electrical pre-treatment vs non-electrical pretreated sample with PBS (flux chart)” value ([3]; FIG. 11C, test #3 vs #4) was “Greater than fivefold increase”, the “increase in skin allantoin delivery, electrical pre-treatment with conductive gel vs non-stimulated (flux chart)” value ([3]; FIG. 11C, test #9 and #11 vs #10) was 5 and the “increase in penetration upon electrical pre-treatment vs non-electrical pretreatment sample with PBS (flux chart)” value ([3]; Round 2b (caffeine), FIG. 13C, test #1 vs #2) was “greater than fivefold increase”. For the same compound, the “allantoin flux, six minute vs three minute electrical pretreatment” value ([3]; Round Four, FIG. 16C, all current levels, 0.5 h to 24 h after pretreatment) was “higher allantoin flux”, the “allantoin flux at later time point” value ([3]; Round Three, FIG. 15C, 1-6 h) was “substantially no flux; also recorded: little or substantially no flux” and the “allantoin flux at initial time point” value ([3]; Round Three, FIG. 15C, all current levels, 30 m to 1 h following pretreatment) was “increased allantoin flux”. The “allantoin recovered by tape stripping vs background (control) allantoin level” value [4] was “increased over the background skin allantoin level”, the “increase in penetration of allantoin in both epidermis and dermis vs non-electrically stimulated sample with PBS” value ([5]; FIG. 11B, test #3 vs #4) was “Greater than fivefold increase” and the “skin allantoin delivery in epidermis and dermis, electrically treated conductive gel vs non-stimulated” value ([5]; FIG. 11B, test #9 and #11 vs #10) was 5. The “increase in penetration in both epidermis and dermis vs non-electrically stimulated sample with PBS” value ([5]; Round 2b (caffeine), FIG. 13B, test #1 vs #2) was “greater than fivefold increase”, the “epidermal and dermal retention of allantoin, six minute vs three minute pretreatment” value ([5]; Round Four, FIG. 16B, NBS 0.1% allantoin, about 375 μA) was “increased epidermal and dermal retention” and the “allantoin retention, three minute and six minute pretreatments” value ([5]; Round Four, FIG. 16B, about 125 μA) was “comparable allantoin retention”. For the same compound, the “allantoin retention in the dermis” value ([5]; Round Four, FIG. 16B, about 250 μA, six minute pretreatment) was “stimulate additional allantoin retention in the dermis”, the “allantoin retention in the epidermis” value ([5]; Round Four, FIG. 16B, about 250 μA, three minute pretreatment) was “stimulate allantoin retention in the epidermis” and the “difference in allantoin retention in the dermis” value ([5]; test #5 vs #6, NBS agent 0.1% allantoin, dermis) was “not necessarily a substantial difference”.
For `Cn1c(=O)c2c(ncn2C)n(C)c1=O` [caffeine], the “increase in penetration after electrical pre-treatment using PBS vs non-electrical pretreatment, caffeine as tracking marker” value [1] was “greater than fivefold increase”.
